Key:
AZD1775 = compound: C=CCn1c(=O)c2cnc(Nc3ccc(N4CCN(C)CC4)cc3)nc2n1-c1cccc(C(C)(C)O)n1 [AZD1775]; conditions: max 3 µM
Summary of the method: (§1)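 Plates with 1536 wells received cancer cell lines in 7.5 μl of DMEM/F12 or RPMI containing 10% FBS. After 24 hours at 37°C and 5% CO2, cells were dosed for 72 hours with final DMSO typically 0.2%, and viability was read by CellTiter-Glo 2.0 luminescence scaled between blank-well and DMSO-well means. The single-agent IC50 was taken from a logistic fit of the dose responses made with a non-linear mixed effects model, that logistic curve having two parameters.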

SRA737 = compound: N#Cc1cnc(Nc2cc(NC[C@H]3CNCCO3)c(C(F)(F)F)cn2)cn1 [SRA737]; conditions: max 10 µM
Summary of the method: as §1

Lapatinib = compound: CS(=O)(=O)CCNCc1ccc(-c2ccc3ncnc(Nc4ccc(OCc5cccc(F)c5)c(Cl)c4)c3c2)o1 [Lapatinib]; conditions: max 10 µM
Summary of the method: as §1

AZD4320 = compound: CN(CC[C@H](CSC1=CC=CC=C1)NC2=C(C=C(C=C2)S(=O)(=O)NC(=O)C3=CC=C(C=C3)N4CCC(CC4)[C@H](C5=CC=CC=C5C6=CC=C(C=C6)Cl)O)S(=O)(=O)C(F)(F)F)CCO [AZD4320]; conditions: max 1 µM
Summary of the method: as §1

SN-38 = compound: CCc1c2c(nc3ccc(O)cc13)-c1cc3c(c(=O)n1C2)COC(=O)[C@]3(O)CC [SN-38]; conditions: max 0.3 µM
Summary of the method: as §1

Carboplatin = compound: C1CC(C1)(C(=O)[O-])C(=O)[O-].N.N.[Pt+2] [Carboplatin]; conditions: max 10 µM
Summary of the method: as §1

Gefitinib = compound: COc1cc2ncnc(Nc3ccc(F)c(Cl)c3)c2cc1OCCCN1CCOCC1 [Gefitinib]; conditions: max 10 µM
Summary of the method: as §1

Palbociclib = compound: CC(=O)c1c(C)c2cnc(Nc3ccc(N4CCNCC4)cn3)nc2n(C2CCCC2)c1=O [Palbociclib]; conditions: max 10 µM
Summary of the method: as §1

Dasatinib = compound: CC1=C(C(=CC=C1)Cl)NC(=O)C2=CN=C(S2)NC3=CC(=NC(=N3)C)N4CCN(CC4)CCO [Dasatinib]; conditions: max 2 µM
Summary of the method: as §1

Trametinib = compound: CC(=O)Nc1cccc(-n2c(=O)n(C3CC3)c(=O)c3c(Nc4ccc(I)cc4F)n(C)c(=O)c(C)c32)c1 [Trametinib]; conditions: max 1 µM
Summary of the method: as §1

AZD5363 = compound: C1CN(CCC1(C(=O)N[C@@H](CCO)C2=CC=C(C=C2)Cl)N)C3=NC=NC4=C3C=CN4 [AZD5363]; conditions: max 10 µM
Summary of the method: as §1

AZD5153 = compound: COc1nnc2ccc(N3CCC(c4ccc(OCCN5CCN(C)C(=O)[C@H]5C)cc4)CC3)nn12 [AZD5153]; conditions: max 1 µM
Summary of the method: as §1

MK-2206 = compound: NC1(c2ccc(-c3nc4ccn5c(=O)[nH]nc5c4cc3-c3ccccc3)cc2)CCC1 [MK-2206]; conditions: max 10 µM
Summary of the method: as §1

AZD1390 = compound: CC(C)n1c(=O)n(C)c2cnc3cc(F)c(-c4ccc(OCCCN5CCCCC5)nc4)cc3c21 [AZD1390]; conditions: max 0.3 µM
Summary of the method: as §1

Olaparib = compound: O=C(c1cc(Cc2n[nH]c(=O)c3ccccc23)ccc1F)N1CCN(C(=O)C2CC2)CC1 [Olaparib]; conditions: max 10 µM
Summary of the method: as §1

[1] = compound: O=C(Nc1ccc2[nH]nc(-c3ccncc3)c2c1)[C@@H]1CCN(CC(=O)N2CCN(c3ccc(-c4ncccn4)cc3)CC2)C1; conditions: max 5 µM
Summary of the method: as §1

Savolitinib = compound: C[C@@H](c1ccc2nccn2c1)n1nnc2ncc(-c3cnn(C)c3)nc21 [Savolitinib]; conditions: max 1 µM
Summary of the method: as §1

Selumetinib = compound: Cn1cnc2c(F)c(Nc3ccc(Br)cc3Cl)c(C(=O)NOCCO)cc21 [Selumetinib]; conditions: max 10 µM
Summary of the method: as §1

Etoposide = compound: COc1cc([C@@H]2c3cc4c(cc3[C@@H](O[C@@H]3O[C@@H]5CO[C@@H](C)O[C@H]5[C@H](O)[C@H]3O)[C@H]3COC(=O)[C@H]23)OCO4)cc(OC)c1O [Etoposide]; conditions: max 10 µM
Summary of the method: as §1

Crizotinib = compound: C[C@@H](Oc1cc(-c2cnn(C3CCNCC3)c2)cnc1N)c1c(Cl)ccc(F)c1Cl [Crizotinib]; conditions: max 10 µM
Summary of the method: as §1

AZD7648 = compound: Cc1cc2ncnn2cc1Nc1ncc2c(n1)n(C1CCOCC1)c(=O)n2C [AZD7648]; conditions: max 10 µM
Summary of the method: as §1

AZD2811 = compound: CCN(CCO)CCCOc1ccc2c(Nc3cc(CC(=O)Nc4cccc(F)c4)[nH]n3)ncnc2c1 [AZD2811]; conditions: max 1 µM
Summary of the method: as §1

Gemcitabine = compound: Nc1ccn([C@@H]2O[C@H](CO)[C@@H](O)C2(F)F)c(=O)n1 [Gemcitabine]; conditions: max 0.3 µM
Summary of the method: as §1

Venetoclax = compound: CC1(C)CCC(CN2CCN(c3ccc(C(=O)NS(=O)(=O)c4ccc(NCC5CCOCC5)c([N+](=O)[O-])c4)c(Oc4cnc5[nH]ccc5c4)c3)CC2)=C(c2ccc(Cl)cc2)C1 [Venetoclax]; conditions: max 1 µM
Summary of the method: as §1

Doxorubicin = compound: COc1cccc2c1C(=O)c1c(O)c3c(c(O)c1C2=O)C[C@@](O)(C(=O)CO)C[C@@H]3O[C@H]1C[C@H](N)[C@H](O)[C@H](C)O1 [Doxorubicin]; conditions: max 1 µM
Summary of the method: as §1

AZD8186 = compound: C[C@@H](Nc1cc(F)cc(F)c1)c1cc(C(=O)N(C)C)cc2c(=O)cc(N3CCOCC3)oc12 [AZD8186]; conditions: max 10 µM
Summary of the method: as §1

Prexasertib = compound: COc1cccc(OCCCN)c1-c1cc(Nc2cnc(C#N)cn2)n[nH]1 [Prexasertib]; conditions: max 1 µM
Summary of the method: as §1

SG3199 = compound: CC1=CN2[C@@H](C1)C=NC3=CC(=C(C=C3C2=O)OC)OCCCCCOC4=C(C=C5C(=C4)N=C[C@@H]6CC(=CN6C5=O)C)OC [SG3199]; conditions: max 0.001 µM
Summary of the method: as §1

Alisertib = compound: COc1cc(Nc2ncc3c(n2)-c2ccc(Cl)cc2C(c2c(F)cccc2OC)=NC3)ccc1C(=O)O [Alisertib]; conditions: max 10 µM
Summary of the method: as §1

AZD5991 = compound: Cc1c2c(nn1C)CSCc1cc(n(C)n1)CSc1cc(c3ccccc3c1)OCCCc1c(C(=O)O)n(C)c3c-2c(Cl)ccc13 [AZD5991]; conditions: max 1 µM
Summary of the method: as §1

AZD0156 = compound: CN(C)CCCOc1ccc(-c2ccc3ncc4c(c3c2)n(C2CCOCC2)c(=O)n4C)cn1 [AZD0156]; conditions: max 3 µM
Summary of the method: as §1

Paclitaxel = compound: CC(=O)O[C@H]1C(=O)[C@@]2(C)[C@H]([C@H](OC(=O)c3ccccc3)[C@]3(O)C[C@H](OC(=O)[C@H](O)[C@@H](NC(=O)c4ccccc4)c4ccccc4)C(C)=C1C3(C)C)[C@]1(OC(C)=O)CO[C@@H]1C[C@@H]2O [Paclitaxel]; conditions: max 3 µM
Summary of the method: as §1

5-Fluorouracil = compound: O=c1[nH]cc(F)c(=O)[nH]1 [5-Fluorouracil]; conditions: max 20 µM
Summary of the method: as §1

Taselisib = compound: Cc1nc(-c2cn3c(n2)-c2ccc(-c4cnn(C(C)(C)C(N)=O)c4)cc2OCC3)n(C(C)C)n1 [Taselisib]; conditions: max 10 µM
Summary of the method: as §1

AZD6738 = compound: C[C@@H]1COCCN1C2=NC(=NC(=C2)C3(CC3)[S@](=N)(=O)C)C4=C5C=CNC5=NC=C4 [AZD6738]; conditions: max 10 µM
Summary of the method: as §1

Cell Line | IC50, cell viability 72 h (AZD1775) [nM] | IC50, cell viability 72 h (SRA737) [µM] | IC50, cell viability 72 h (Lapatinib) [µM] | IC50, cell viability 72 h (AZD4320) [nM] | IC50, cell viability 72 h (SN-38) [nM] | IC50, cell viability 72 h (Carboplatin) [µM] | IC50, cell viability 72 h (Gefitinib) [µM] | IC50, cell viability 72 h (Palbociclib) [µM] | IC50, cell viability 72 h (Dasatinib) [nM] | IC50, cell viability 72 h (Trametinib) [nM] | IC50, cell viability 72 h (AZD5363) [µM] | IC50, cell viability 72 h (AZD5153) [nM] | IC50, cell viability 72 h (MK-2206) [µM] | IC50, cell viability 72 h (AZD1390) [nM] | IC50, cell viability 72 h (Olaparib) [µM] | IC50, cell viability 72 h [1] [nM] | IC50, cell viability 72 h (Savolitinib) [nM] | IC50, cell viability 72 h (Selumetinib) [µM] | IC50, cell viability 72 h (Etoposide) [µM] | IC50, cell viability 72 h (Crizotinib) [µM] | IC50, cell viability 72 h (AZD7648) [µM] | IC50, cell viability 72 h (AZD2811) [nM] | IC50, cell viability 72 h (Gemcitabine) [nM] | IC50, cell viability 72 h (Venetoclax) [nM] | IC50, cell viability 72 h (Doxorubicin) [nM] | IC50, cell viability 72 h (AZD8186) [µM] | IC50, cell viability 72 h (Prexasertib) [nM] | IC50, cell viability 72 h (SG3199) [nM] | IC50, cell viability 72 h (Alisertib) [µM] | IC50, cell viability 72 h (AZD5991) [nM] | IC50, cell viability 72 h (AZD0156) [nM] | IC50, cell viability 72 h (Paclitaxel) [nM] | IC50, cell viability 72 h (5-Fluorouracil) [µM] | IC50, cell viability 72 h (Taselisib) [µM] | IC50, cell viability 72 h (AZD6738) [µM]
ONS-76 (Other Solid Carcinomas) | 1190 | 1.69 | > 10 | > 1000 | 43.7 | > 10 | > 10 | > 10 | > 2000 | 23.9 | > 10 | 940 | > 10 | > 300 | > 10 | 270 | > 1000 | 1.91 | 8.96 | > 10 | > 10 | > 1000 | 257 | > 1000 | 252 | > 10 | 8.7 | > 1 | > 10 | > 1000 | > 3000 | 66.1 | > 20 | > 10 | 1
PANC-10-05 (Pancreatic Carcinoma) | 1270 | > 10 | > 10 | > 1000 | 59.5 | > 10 | > 10 | > 10 | 1510 | 438 | > 10 | 732 | > 10 | > 300 | > 10 | 3330 | > 1000 | > 10 | > 10 | > 10 | > 10 | > 1000 | > 300 | > 1000 | > 1000 | > 10 | > 1000 | > 1 | > 10 | > 1000 | > 3000 | 378 | > 20 | 7.17 | > 10
TT (Thyroid Gland Carcinoma) | > 3000 | > 10 | > 10 | > 1000 | 68.8 | > 10 | > 10 | > 10 | > 2000 | > 1000 | > 10 | 808 | > 10 | > 300 | > 10 | > 5000 | > 1000 | > 10 | > 10 | > 10 | > 10 | > 1000 | > 300 | > 1000 | > 1000 | > 10 | 249 | > 1 | > 10 | > 1000 | > 3000 | > 3000 | > 20 | > 10 | > 10
U-2-OS (Osteosarcoma) | 1080 | 5.43 | > 10 | > 1000 | > 300 | > 10 | > 10 | > 10 | > 2000 | 140 | > 10 | > 1000 | > 10 | > 300 | > 10 | 2130 | > 1000 | > 10 | > 10 | > 10 | > 10 | > 1000 | > 300 | > 1000 | > 1000 | > 10 | 17.4 | > 1 | > 10 | > 1000 | > 3000 | 162 | > 20 | > 10 | > 10
VCaP (Prostate Carcinoma) | 1450 | > 10 | > 10 | > 1000 | 205 | > 10 | > 10 | > 10 | > 2000 | > 1000 | 7.96 | 122 | 9.7 | > 300 | > 10 | > 5000 | > 1000 | > 10 | 9.35 | > 10 | > 10 | > 1000 | 65 | > 1000 | > 1000 | > 10 | 85.4 | > 1 | > 10 | 316 | > 3000 | 22.4 | > 20 | 3.15 | > 10
